Test results taken from publication PMC7065771, “Dietary supplementation of recombinant antimicrobial peptide Epinephelus lanceolatus piscidin improves growth performance and immune response in Gallus gallus domesticus” (PLoS ONE, 2020).

Assays:
[1] = tested on: Riemerella anatipestifer (RA9); test: Inhibition zone (disk diffusion) assay; assay type: cell-based; details: disk paper on culture plate 16 h at 37°C, rEP: shake-flask supernatant 120 h after induction, maximum carrying capacity, ampicillin 2 mg/ml, 10 μl, read-out: Inhibition zone diameter
Experimental: (§1) All assays were performed in triplicate.
(§2) The antimicrobial activity of rEP from flask cultures was evaluated by determining its ability to prevent growth of Gram-positive and Gram-negative bacteria with a disk diffusion assay. […] The most susceptible pathogens were R. anatipestifer (CFC27) and R. anatipestifer (CFC437) (Table 3a). Next, we investigated the thermostability of flask-fermented rEP with regard to its toxicity toward S. aureus (BCRC 10780), E. coli (BCRC 10675) and P. aeruginosa (ATCC 19660). Empty vector with no insert in P. pastoris was used as a control. Thermostability was measured by disk diffusion assay after cultures were incubated for 5 min at 40, 60, 80, or 100°C (Table 3b).

[2] = tested on: Riemerella anatipestifer (RA3); test: Inhibition zone (disk diffusion) assay; assay type: cell-based; details: Riemerella anatipestifer; disk paper 16 h at 37°C; ampicillin 2 mg/ml, 10 μl; read-out: Inhibition zone diameter
Experimental: as §1, §2

[3] = tested on: Riemerella anatipestifer (CFC437); test: Inhibition zone (disk diffusion) assay; assay type: cell-based; details: Riemerella anatipestifer; disk paper 16 h at 37°C; ampicillin 2 mg/ml, 10 μl; read-out: Inhibition zone diameter
Experimental: as §1, §2

[4] = tested on: Escherichia coli (BCRC 10675); test: Inhibition zone (disk diffusion) assay; assay type: cell-based; details: Escherichia coli, BCRC10675; disk paper on culture plate 16 h at 37°C; rEP: shake-flask supernatant 120 h after induction, maximum carrying capacity; ampicillin 2 mg/ml, 10 μl; read-out: Inhibition zone diameter
Experimental: as §1, §2

[5] = tested on: Staphylococcus aureus (BCRC 10780); test: Inhibition zone (disk diffusion) assay; assay type: cell-based; details: Staphylococcus aureus, BCRC10780; disk paper on culture plate 16 h at 37°C; rEP: shake-flask supernatant 120 h after induction, maximum carrying capacity; ampicillin 2 mg/ml, 10 μl; read-out: Inhibition zone diameter
Experimental: as §1, §2

[6] = tested on: Riemerella anatipestifer (CFC27); test: Inhibition zone (disk diffusion) assay; assay type: cell-based; details: Riemerella anatipestifer; disk paper 16 h at 37°C; ampicillin 2 mg/ml, 10 μl; read-out: Inhibition zone diameter
Experimental: as §1, §2

[7] = tested on: Pseudomonas aeruginosa (ATCC 19660); test: Inhibition zone (disk diffusion) assay; assay type: cell-based; details: Pseudomonas aeruginosa, ATCC19660; disk paper on culture plate 16 h at 37°C; rEP: shake-flask supernatant 120 h after induction, maximum carrying capacity; ampicillin 2 mg/ml, 10 μl; read-out: Inhibition zone diameter
Experimental: as §1, §2

[8] = tested on: Riemerella anatipestifer (CFC363); test: Inhibition zone (disk diffusion) assay; assay type: cell-based; details: disk paper on culture plate 16 h at 37°C, rEP: shake-flask supernatant 120 h after induction, maximum carrying capacity, ampicillin 2 mg/ml, 10 μl, read-out: Inhibition zone diameter
Experimental: as §1, §2

[9] = tested on: Riemerella anatipestifer (RA16); test: Inhibition zone (disk diffusion) assay; assay type: cell-based; details: disk paper on culture plate 16 h at 37°C, rEP: shake-flask supernatant 120 h after induction, maximum carrying capacity, ampicillin 2 mg/ml, 10 μl, read-out: Inhibition zone diameter
Experimental: as §1, §2

Klebsiella oxytoca = assay type: cell-based; details: 24 h
Experimental: as §1

Escherichia coli = assay type: cell-based; details: 24 h
Experimental: as §1

Streptococcus agalactiae = assay type: cell-based; details: 24 h
Experimental: as §1

[10] = tested on: Staphylococcus aureus subsp; assay type: cell-based; details: 24 h
Experimental: as §1

Streptococcus equinus = assay type: cell-based; details: 24 h
Experimental: as §1

MRSA = assay type: cell-based, Methicillin-resistant Staphylococcus aureus; details: 24 h
Experimental: as §1

Vibrio parahaemolyticus = details: synthetic peptide, microbroth dilution series, Gram -
Pseudomonas aeruginosa = assay type: cell-based; details: 24 h
Experimental: as §1

CC1(C)S[C@@H]2[C@H](NC(=O)[C@H](N)c3ccccc3)C(=O)N2[C@H]1C(=O)O [Ampicillin, reference compound]
zone of inhibition at 2000 µg/mL [1]: 31 ± 0.8 mm
zone of inhibition at 2000 µg/mL [2]: 12 ± 2.5 mm
zone of inhibition at 2000 µg/mL [3]: 15 ± 4.5 mm
zone of inhibition at 2000 µg/mL [4]: 13.6 ± 0.5 mm
zone of inhibition at 2000 µg/mL [5]: 14.6 ± 0.5 mm
zone of inhibition at 2000 µg/mL [6]: 43 ± 1.1 mm
zone of inhibition at 2000 µg/mL [7]: 11.6 ± 0.5 mm
zone of inhibition at 2000 µg/mL [8]: 32 ± 2.3 mm
zone of inhibition at 2000 µg/mL [9]: 30 ± 1.2 mm

Ac-CIMKHLRNLWNGAKAIYNGAKAGWTEFK-NH2 [G6496-t1]
MIC (Klebsiella oxytoca): 60 µg/mL
MIC (Escherichia coli): 60 µg/mL
MIC (Streptococcus agalactiae): 60 µg/mL
MIC [10]: 60 µg/mL
MIC (Streptococcus equinus): 30 µg/mL

Ac-CFFRHIKSFWRGAKAIFRGARQGWRE-NH2 [G6497-t1]
MIC (MRSA): 60 µg/mL
MIC (Klebsiella oxytoca): 30 µg/mL
MIC (Escherichia coli): 30 µg/mL
MIC (Streptococcus agalactiae): 60 µg/mL
MIC [10]: 60 µg/mL
MIC (Streptococcus equinus): 15 µg/mL
MIC (Vibrio parahaemolyticus): 60 µg/mL

Ac-GFIFHIIKGLFHAGRMIHGLVNRRRHRHGMEE-NH2 [G6498-t1]
MIC (MRSA): 5.6 µg/mL
MIC (Klebsiella oxytoca): 45 µg/mL
MIC (Escherichia coli): 22.5 µg/mL
MIC (Streptococcus agalactiae): 90 µg/mL
MIC (Pseudomonas aeruginosa): 45 µg/mL
MIC [10]: 90 µg/mL
MIC (Streptococcus equinus): 11.2 µg/mL
MIC (Vibrio parahaemolyticus): 5.6 µg/mL
